Laboratory results as given in PubChem BioAssay AID330 (DTP/NCI, 2004).
Where “and” joins values, the source holds several entries; their conditions need not be identical. Equal entries are not always repeated. Inconclusive results and toxic doses are left out. How the source made its calls: active means survival T/C of 150% or more; inactive means T/C below 125% in these data.

Tested on: P388 leukemia ip, CD2F1 mice, survival T/C
Assay: NCI In Vivo Anticancer Drug Screen. Data for tumor model P388 Leukemia (intraperitoneal) in CD2F1 (CDF1) mice
Details: endpoint: median survival time, higher = longer survival
Summary of the method: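 Mice carrying the transplanted tumor received test compound or vehicle. Survival was recorded in each group, and the value is the treated-group measurement divided by that of the vehicle-treated control group.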

[1] = dose: 50.0 mg/kg/injection, schedule: Q01DX009 (ip), vehicle: saline with Tween-80
[2] = dose: 100.0 mg/kg/injection, schedule: Q01DX009 (ip), vehicle: saline with Tween-80
[3] = dose: 200.0 mg/kg/injection, schedule: Q01DX009 (ip), vehicle: saline with Tween-80
[4] = dose: 60.0 mg/kg/injection, schedule: Q01DX005 (ip), vehicle: saline with Tween-80
[5] = dose: 120.0 mg/kg/injection, schedule: Q01DX005 (ip), vehicle: saline with Tween-80
[6] = dose: 240.0 mg/kg/injection, schedule: Q01DX005 (ip), vehicle: saline with Tween-80
[7] = dose: 100.0 mg/kg/injection, schedule: Q01DX001 (ip), vehicle: saline with Tween-80
[8] = dose: 200.0 mg/kg/injection, schedule: Q01DX001 (ip), vehicle: saline with Tween-80
[9] = dose: 12.5 mg/kg/injection, schedule: Q01DX009 (ip), vehicle: saline
[10] = dose: 25.0 mg/kg/injection, schedule: Q01DX009 (ip), vehicle: saline
[11] = dose: 50.0 mg/kg/injection, schedule: Q01DX009 (ip), vehicle: saline
[12] = dose: 100.0 mg/kg/injection, schedule: Q01DX009 (ip), vehicle: saline
[13] = dose: 50.0 mg/kg/injection, schedule: Q01DX005 (ip), vehicle: saline with Tween-80
[14] = dose: 100.0 mg/kg/injection, schedule: Q01DX005 (ip), vehicle: saline with Tween-80
[15] = dose: 50.0 mg/kg/injection, schedule: Q01DX005 (ip), vehicle: Klucel (hydroxypropylcellulose) (HPC)
[16] = dose: 100.0 mg/kg/injection, schedule: Q01DX005 (ip), vehicle: Klucel (hydroxypropylcellulose) (HPC)

Measured: T/C

Cc1ccc(S(=O)(=O)C(=S)Sc2ccccc2)cc1
inactive: dose: 3.12 mg/kg/injection, schedule: Q01DX009 (ip), vehicle: saline with Tween-80 104 % of control | dose: 6.25 mg/kg/injection, schedule: Q01DX009 (ip), vehicle: saline with Tween-80 105 % of control | dose: 12.5 mg/kg/injection, schedule: Q01DX009 (ip), vehicle: alcohol 104 % of control | dose: 12.5 mg/kg/injection, schedule: Q01DX009 (ip), vehicle: saline with Tween-80 109 % of control | dose: 25.0 mg/kg/injection, schedule: Q01DX009 (ip), vehicle: alcohol 107 % of control | dose: 50.0 mg/kg/injection, schedule: Q01DX009 (ip), vehicle: alcohol 107 % of control | [1] 123 % of control

CN(c1ccccc1)C1CS(=O)(=O)OC2=C1CCCC2 (configuration not stated)
inactive: [1] 98 % of control | [2] 102 % of control | [3] 104 % of control

Cc1ccc2c(c1)SP1(c3ccccc3)(Oc3c(c4ccccc4c4ccccc34)O1)S2
inactive: [4] 118 % of control | [5] 110 % of control | [6] 114 % of control

Cc1cc2nc3ccccc3[nH]c2c2ccc(=O)cc12
inactive: dose: 100.0 mg/kg/injection, schedule: Q04DX002 (ip), vehicle: saline with Tween-80 99 % of control | dose: 200.0 mg/kg/injection, schedule: Q04DX002 (ip), vehicle: saline with Tween-80 98 % of control | dose: 400.0 mg/kg/injection, schedule: Q04DX002 (ip), vehicle: saline with Tween-80 94 % of control

CC(=O)N/C(=C\c1ccc(Cl)cc1)C(=O)c1ccc(C)cc1
inactive: dose: 50.0 mg/kg/injection, schedule: Q01DX001 (ip), vehicle: saline with Tween-80 99 % of control | [7] 97 % of control | [8] 97 % of control

Cc1ccccc1CC1c2[nH]c3ccccc3c2CCN1C (configuration not stated)
inactive: [4] 109 % of control | [5] 109 % of control

O=C1OS(=O)(=O)c2cc3c(cc21)C1C(C2C3C3(Cl)C(Cl)=C(Cl)C2(Cl)C3(Cl)Cl)C2(Cl)C(Cl)=C(Cl)C1(Cl)C2(Cl)Cl (configuration not stated)
inactive: [9] 97 % of control | [10] 100 % of control | [11] 100 % of control and 104 % of control | [12] 107 % of control

O=C1c2ccccc2C(=O)N1CCn1[nH]c(=O)c2ccccc2c1=O
inactive: [4] 99 % of control | [5] 90 % of control | [6] 96 % of control

Clc1nc(-c2ccccc2)nc(-c2ccccc2)n1
inactive: dose: 100.0 mg/kg/injection, schedule: Q04DX002 (ip), vehicle: saline 104 % of control | dose: 200.0 mg/kg/injection, schedule: Q04DX002 (ip), vehicle: saline 100 % of control | dose: 400.0 mg/kg/injection, schedule: Q04DX002 (ip), vehicle: saline 109 % of control

COC1/C=C/OC2(C)Oc3c(C)c(O)c4c(O)c(c(/C=N/N5C(C)CN(Cc6ccccc6O)CC5C)c(O)c4c3C2=O)NC(=O)/C(C)=C\C=C\C(C)C(O)C(C)C(O)C(C)C(OC(C)=O)C1C (configuration not stated)
inactive: [1] 92 % of control | [2] 96 % of control | [3] 91 % of control

NC(CC(=O)O)P(=O)(O)O (configuration not stated)
inactive: [11] 93 % of control | [12] 98 % of control | dose: 200.0 mg/kg/injection, schedule: Q01DX009 (ip), vehicle: saline 107 % of control

C=CCNC(=S)N/N=C(\CCC)c1ccccn1
inactive: [13] 114 % of control | [14] 121 % of control

C=CCn1c(C)nc2c(cnn2C)c1=O
inactive: [15] 101 % of control | [16] 110 % of control | dose: 200.0 mg/kg/injection, schedule: Q01DX005 (ip), vehicle: Klucel (hydroxypropylcellulose) (HPC) 104 % of control

COC(=O)CC1(C(=O)OC)c2ccc3ccccc3c2N(C#N)C1CCCBr (configuration not stated)
inactive: dose: 100.0 mg/kg/injection, schedule: Q01DX001 (ip), vehicle: saline 109 % of control | dose: 200.0 mg/kg/injection, schedule: Q01DX001 (ip), vehicle: saline 107 % of control | dose: 400.0 mg/kg/injection, schedule: Q01DX001 (ip), vehicle: saline 100 % of control

N#CC(C(=O)CCC(=O)C(C#N)c1ccccc1Cl)c1ccccc1Cl (configuration not stated)
inactive: [4] 104 % of control | [5] 114 % of control | [6] 111 % of control

c1ccc(-c2nnc(-c3ccccn3)nn2)nc1
inactive: dose: 25.0 mg/kg/injection, schedule: Q01DX009 (ip), vehicle: Klucel (hydroxypropylcellulose) (HPC) 100 % of control | dose: 50.0 mg/kg/injection, schedule: Q01DX009 (ip), vehicle: Klucel (hydroxypropylcellulose) (HPC) 99 % of control | dose: 100.0 mg/kg/injection, schedule: Q01DX009 (ip), vehicle: Klucel (hydroxypropylcellulose) (HPC) 100 % of control | dose: 200.0 mg/kg/injection, schedule: Q01DX009 (ip), vehicle: Klucel (hydroxypropylcellulose) (HPC) 108 % of control | dose: 400.0 mg/kg/injection, schedule: Q01DX009 (ip), vehicle: Klucel (hydroxypropylcellulose) (HPC) 96 % of control

CN(C)n1c(O)c(N=O)sc1=S
inactive: [15] 96 % of control | [16] 95 % of control

COC(=O)Cn1/c(=N\N=C\c2ccccc2)sc2ccccc21
inactive: [7] 90 % of control | [8] 87 % of control | dose: 400.0 mg/kg/injection, schedule: Q01DX001 (ip), vehicle: saline with Tween-80 88 % of control

CC1=CSC2=NCCCCN12
inactive: dose: 6.25 mg/kg/injection, schedule: Q01DX009 (ip), vehicle: saline 91 % of control | [9] 93 % of control | [10] 92 % of control

CCOC(=O)CC/C(=C\NC(=O)c1ccccc1)NC(=O)c1ccccc1
inactive: [4] 96 % of control | [5] 88 % of control | [6] 90 % of control

O=C(NC1(C(=O)O)CC1c1ccccc1)c1ccccc1 (configuration not stated)
inactive: dose: 60.0 mg/kg/injection, schedule: Q01DX005 (ip), vehicle: Klucel (hydroxypropylcellulose) (HPC) 100 % of control | dose: 120.0 mg/kg/injection, schedule: Q01DX005 (ip), vehicle: Klucel (hydroxypropylcellulose) (HPC) 94 % of control | dose: 240.0 mg/kg/injection, schedule: Q01DX005 (ip), vehicle: Klucel (hydroxypropylcellulose) (HPC) 100 % of control

C=C(C)CC1(C)C(=O)CCC1O (configuration not stated)
inactive: [4] 104 % of control | [5] 102 % of control | [6] 106 % of control

Cn1c2ccccc2c2cnn3c(-c4ccccc4)nnc3c21
inactive: dose: 100.0 mg/kg/injection, schedule: Q01DX001 (ip), vehicle: Klucel (hydroxypropylcellulose) (HPC) 105 % of control | dose: 200.0 mg/kg/injection, schedule: Q01DX001 (ip), vehicle: Klucel (hydroxypropylcellulose) (HPC) 100 % of control | dose: 400.0 mg/kg/injection, schedule: Q01DX001 (ip), vehicle: Klucel (hydroxypropylcellulose) (HPC) 100 % of control

COc1ccc(C(C)c2cc(OC)c(OC)cc2OC)cc1 (configuration not stated)
inactive: [4] 102 % of control | [5] 102 % of control | [6] 105 % of control

CCOC(=O)CSc1cc(O)c2ccccc2c1N=Nc1ccc(C(=O)O)cc1
inactive: dose: 12.5 mg/kg/injection, schedule: Q01DX005 (ip), vehicle: saline with Tween-80 94 % of control | dose: 25.0 mg/kg/injection, schedule: Q01DX005 (ip), vehicle: saline with Tween-80 88 % of control | [13] 88 % of control | [14] 86 % of control | dose: 200.0 mg/kg/injection, schedule: Q01DX005 (ip), vehicle: saline with Tween-80 93 % of control

CCCCCOCc1cc(C)no1
inactive: [4] 104 % of control | [5] 109 % of control | [6] 104 % of control

CNC(=O)N1CCOC1c1ccc(NC(=O)OC)cc1 (configuration not stated)
inactive: [4] 96 % of control | [5] 90 % of control | [6] 95 % of control
